This note sets out measurements from ChEMBL document CHEMBL6092206, “Discovery and Characterization of BAY-184: A New Potent and Selective Acylsulfonamide-Benzofuran In Vivo-Active KAT6AB Inhibitor” (J Med Chem, 2024).

In brackets after ≈: the same amount, converted by molar mass.

Series [1] addresses Histone acetyltransferase KAT6B (Homo sapiens, UniProt Q8WYB5). Put plainly: Inhibition of C-terminal human recombinant KAT6B (431 to end residues) expressed in baculovirus-infected Sf9 insect cells using H4-derived peptide as substrate incubated for 30 mins in presence of AcCoA by TR-FRET assay.
Series [2] concerns the target T1, Histone acetyltransferase KAT6A (Homo sapiens, UniProt Q92794). The series is described as follows: Inhibition of his-tagged human recombinant KAT6A (194 to 810 residues) expressed in baculovirus-infected Sf9 insect cells using H4-derived peptide as substrate incubated for 40 mins in presence of AcCoA by TR-FRET assay. (In TR-FRET formats the signal depends on donor and acceptor labels being close together.)

For series [3], the target named is T1, Histone acetyltransferase KAT6A. The series is described as follows: Inhibition of KAT6A in human MVLN cells assessed as decrease in estrogen receptor level incubated for 24 hrs by gene reporter assay. Format: cell-based.
A short description of series [4]: Dissociation constant, pKa of compound. Format: physicochemical.
A short description of series [5]: Apparent permeability across apical to basolateral side in human Caco-2 cells at 2 uM pH 7.2 measured for 2 hrs by LC-MS/MS analysis. Format: ADME, cell-based.
Series [6] is described as follows: Aqueous solubility of compound in PBS at pH 6.5 incubated for 24 hrs by HPLC-UV analysis. Format: physicochemical.
The nature of series [7]: Lipophilicity, logD of the compound at pH 7.5. Format: physicochemical. Particulars: buffer.
The nature of series [8]: Efflux ratio of apparent permeability across basolateral to apical side over apical to basolateral side in human Caco-2 cells incubated for 2 hrs by LC-MS/MS analysis. Format: ADME, cell-based. As to conditions: caco-2, 2 h. For orientation: Passage across Caco-2 layers is used to estimate intestinal permeability.

Chain of Histone acetyltransferase KAT6B (Q8WYB5 whole entry, the tested form may be a part): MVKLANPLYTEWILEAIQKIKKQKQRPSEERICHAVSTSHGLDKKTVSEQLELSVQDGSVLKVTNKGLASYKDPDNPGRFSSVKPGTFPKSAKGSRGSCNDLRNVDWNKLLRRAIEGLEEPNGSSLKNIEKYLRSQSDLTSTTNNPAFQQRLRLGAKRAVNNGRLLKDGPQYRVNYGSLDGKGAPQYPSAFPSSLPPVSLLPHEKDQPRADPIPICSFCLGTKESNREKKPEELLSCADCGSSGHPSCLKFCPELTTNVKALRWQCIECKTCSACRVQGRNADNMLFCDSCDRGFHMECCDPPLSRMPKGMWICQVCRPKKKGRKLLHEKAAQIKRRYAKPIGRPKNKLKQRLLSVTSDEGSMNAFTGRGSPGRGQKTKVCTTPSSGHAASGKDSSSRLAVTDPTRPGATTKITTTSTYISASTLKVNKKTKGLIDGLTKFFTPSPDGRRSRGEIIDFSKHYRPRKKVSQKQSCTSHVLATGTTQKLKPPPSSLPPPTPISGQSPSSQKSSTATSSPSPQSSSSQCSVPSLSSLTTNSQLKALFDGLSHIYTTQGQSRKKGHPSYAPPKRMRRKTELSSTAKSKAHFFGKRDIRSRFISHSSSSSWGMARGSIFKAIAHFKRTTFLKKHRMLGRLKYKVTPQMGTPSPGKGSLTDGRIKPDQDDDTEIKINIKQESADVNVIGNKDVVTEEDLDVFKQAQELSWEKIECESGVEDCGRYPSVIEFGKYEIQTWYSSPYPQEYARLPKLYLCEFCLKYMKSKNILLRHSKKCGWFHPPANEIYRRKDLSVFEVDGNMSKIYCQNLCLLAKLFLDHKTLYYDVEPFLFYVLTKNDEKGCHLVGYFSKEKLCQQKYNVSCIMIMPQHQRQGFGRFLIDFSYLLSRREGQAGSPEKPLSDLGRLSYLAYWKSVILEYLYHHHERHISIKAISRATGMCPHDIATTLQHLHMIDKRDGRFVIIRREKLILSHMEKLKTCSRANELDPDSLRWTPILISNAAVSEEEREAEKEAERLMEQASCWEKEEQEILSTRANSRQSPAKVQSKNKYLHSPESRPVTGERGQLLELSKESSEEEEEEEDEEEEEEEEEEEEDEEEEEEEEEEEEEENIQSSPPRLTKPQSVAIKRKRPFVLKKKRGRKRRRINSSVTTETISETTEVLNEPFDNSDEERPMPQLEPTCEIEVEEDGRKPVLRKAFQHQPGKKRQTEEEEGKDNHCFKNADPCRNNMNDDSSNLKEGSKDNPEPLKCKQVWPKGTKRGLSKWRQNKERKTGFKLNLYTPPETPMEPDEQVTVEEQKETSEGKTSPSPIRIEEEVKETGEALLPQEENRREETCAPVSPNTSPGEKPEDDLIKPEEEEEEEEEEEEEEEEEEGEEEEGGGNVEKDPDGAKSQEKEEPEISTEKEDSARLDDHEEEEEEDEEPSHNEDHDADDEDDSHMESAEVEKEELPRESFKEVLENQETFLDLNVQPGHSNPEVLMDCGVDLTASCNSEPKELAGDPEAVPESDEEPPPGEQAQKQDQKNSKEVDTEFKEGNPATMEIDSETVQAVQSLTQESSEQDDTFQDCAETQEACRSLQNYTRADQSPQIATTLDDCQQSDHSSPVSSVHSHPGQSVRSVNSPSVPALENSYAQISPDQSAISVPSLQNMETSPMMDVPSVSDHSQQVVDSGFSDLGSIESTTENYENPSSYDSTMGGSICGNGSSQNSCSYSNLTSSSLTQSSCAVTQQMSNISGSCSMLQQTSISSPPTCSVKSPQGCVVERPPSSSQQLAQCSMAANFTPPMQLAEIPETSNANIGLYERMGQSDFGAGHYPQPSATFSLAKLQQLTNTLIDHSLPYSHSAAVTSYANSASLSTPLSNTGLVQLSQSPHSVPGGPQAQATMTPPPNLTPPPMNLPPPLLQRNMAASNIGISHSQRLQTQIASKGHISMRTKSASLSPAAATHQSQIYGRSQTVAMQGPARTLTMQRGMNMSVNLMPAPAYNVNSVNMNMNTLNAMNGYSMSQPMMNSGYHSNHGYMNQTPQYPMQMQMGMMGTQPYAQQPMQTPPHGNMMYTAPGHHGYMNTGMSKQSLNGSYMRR
T1 sequence (Q92794 whole entry, the tested form may be a part): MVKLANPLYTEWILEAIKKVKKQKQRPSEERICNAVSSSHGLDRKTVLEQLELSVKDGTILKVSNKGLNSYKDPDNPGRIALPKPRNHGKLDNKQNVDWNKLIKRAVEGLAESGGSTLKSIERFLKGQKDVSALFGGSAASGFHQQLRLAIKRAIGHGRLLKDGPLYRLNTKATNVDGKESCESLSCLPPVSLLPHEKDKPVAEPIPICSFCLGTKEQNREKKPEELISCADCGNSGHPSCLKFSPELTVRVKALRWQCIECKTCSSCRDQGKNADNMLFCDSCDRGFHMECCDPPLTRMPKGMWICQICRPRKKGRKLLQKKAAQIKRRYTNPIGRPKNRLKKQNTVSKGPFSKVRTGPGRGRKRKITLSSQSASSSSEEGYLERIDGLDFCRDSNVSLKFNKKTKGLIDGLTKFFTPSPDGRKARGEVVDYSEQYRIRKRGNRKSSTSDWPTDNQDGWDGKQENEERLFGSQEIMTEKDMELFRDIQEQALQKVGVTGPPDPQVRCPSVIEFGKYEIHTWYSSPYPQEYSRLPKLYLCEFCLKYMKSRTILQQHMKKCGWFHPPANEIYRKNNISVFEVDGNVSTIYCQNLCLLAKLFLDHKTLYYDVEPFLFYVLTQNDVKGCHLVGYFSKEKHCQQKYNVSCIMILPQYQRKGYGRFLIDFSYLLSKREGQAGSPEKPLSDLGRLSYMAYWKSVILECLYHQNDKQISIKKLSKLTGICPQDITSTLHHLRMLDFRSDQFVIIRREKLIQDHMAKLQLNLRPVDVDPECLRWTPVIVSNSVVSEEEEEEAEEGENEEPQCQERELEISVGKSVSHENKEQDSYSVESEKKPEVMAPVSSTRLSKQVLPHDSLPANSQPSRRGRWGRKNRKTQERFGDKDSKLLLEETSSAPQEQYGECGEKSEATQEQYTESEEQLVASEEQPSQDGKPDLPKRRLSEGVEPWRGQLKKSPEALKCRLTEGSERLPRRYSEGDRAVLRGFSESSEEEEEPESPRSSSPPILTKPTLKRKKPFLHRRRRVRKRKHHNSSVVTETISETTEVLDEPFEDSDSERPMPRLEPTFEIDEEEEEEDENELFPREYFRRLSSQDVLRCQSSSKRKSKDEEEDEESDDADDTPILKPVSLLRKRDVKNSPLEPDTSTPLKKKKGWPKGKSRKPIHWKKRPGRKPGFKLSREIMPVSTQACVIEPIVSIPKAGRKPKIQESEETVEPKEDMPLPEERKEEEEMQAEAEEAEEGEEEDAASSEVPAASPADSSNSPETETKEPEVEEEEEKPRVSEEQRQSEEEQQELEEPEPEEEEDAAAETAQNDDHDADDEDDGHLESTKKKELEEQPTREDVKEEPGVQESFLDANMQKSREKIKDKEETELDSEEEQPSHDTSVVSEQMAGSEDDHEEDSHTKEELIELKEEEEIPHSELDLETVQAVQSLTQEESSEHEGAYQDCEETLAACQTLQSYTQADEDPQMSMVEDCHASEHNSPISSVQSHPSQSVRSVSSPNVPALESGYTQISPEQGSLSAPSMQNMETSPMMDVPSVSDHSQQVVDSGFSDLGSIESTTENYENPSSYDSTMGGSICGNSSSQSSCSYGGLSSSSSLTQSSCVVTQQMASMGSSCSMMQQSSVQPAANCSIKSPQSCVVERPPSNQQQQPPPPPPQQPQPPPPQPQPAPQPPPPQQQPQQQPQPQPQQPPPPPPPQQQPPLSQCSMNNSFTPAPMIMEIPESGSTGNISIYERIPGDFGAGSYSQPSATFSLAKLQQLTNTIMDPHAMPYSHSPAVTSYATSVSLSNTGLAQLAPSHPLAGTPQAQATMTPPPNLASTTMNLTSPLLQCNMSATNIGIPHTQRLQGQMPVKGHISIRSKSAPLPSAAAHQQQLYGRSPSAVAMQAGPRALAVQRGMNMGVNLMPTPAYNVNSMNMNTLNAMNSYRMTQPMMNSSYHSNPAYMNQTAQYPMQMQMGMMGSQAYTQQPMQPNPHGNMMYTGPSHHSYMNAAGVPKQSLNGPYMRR

The term IC50 denotes the concentration needed to halve the response being measured. Consider `COc1ccc2oc(C(=O)NS(=O)(=O)c3ccccc3-c3ccccc3)cc2c1`, for which the IC50 is 9020 nM in series [1] and 1800 nM in series [2].

`O=C(NS(=O)(=O)c1ccccc1-c1ccccc1)c1cc2ccc(OCCO)cc2o1`: the IC50 in series [3] was > 20000 nM; in series [2], 1370 nM.

As to `COc1cc(C)c2cc(C(=O)NS(=O)(=O)c3cccc4ccc(C)nc34)oc2c1`, the IC50 in series [3] is 2570 nM; in series [2], 13 nM.

What is called pKa is the pH at which an ionisable group is half protonated. Low readings indicate a group that gives up its proton readily, high ones a group that holds its proton tightly. On to `COc1cc(C)c2cc(C(=O)NS(=O)(=O)c3ccccc3OC)oc2c1`, for which the IC50 came to 13200 nM in series [3] and 46 nM in series [2]. In series [4], the pKa worked out at 3.2.

`CCCN(C)c1ccc2cc(C(=O)NS(=O)(=O)c3ccccc3-c3ccccc3)oc2c1`: the IC50 was > 20000 nM in series [3] and 751 nM in series [2].

In the case of `COc1cc(C)c2cc(C(=O)NS(=O)(=O)c3ccc(-c4ccccc4)cc3)oc2c1`, the results for the IC50 in series [3] and in series [2] were > 17600 nM and 46 nM, respectively. This compound registered a pKa in series [4] of 5.8.

Consider `COc1cccc2oc(C(=O)NS(=O)(=O)c3ccccc3-c3ccccc3)cc12`, for which the IC50 in series [1] was determined as 3140 nM; in series [2], 1350 nM.

In the case of `COc1cc(C)c2cc(C(=O)NS(=O)(=O)c3ccc(C)cc3)oc2c1`, the IC50 in series [3] amounted to 18200 nM; in series [2] it was 107 nM. The pKa in series [4] is 3.

Regarding `COc1cccc2cc(C(=O)NS(=O)(=O)c3ccccc3-c3ccccc3)oc12`, the IC50 in series [1] turned out to be 351 nM; in series [3], 4520 nM; in series [2], 142 nM.

`C=C(C)c1ccc2cc(C(=O)NS(=O)(=O)c3ccccc3-c3ccccc3)oc2c1`: in series [3], the IC50 was 1320 nM.

`O=C(NS(=O)(=O)c1ccccc1-c1ccccc1)c1cc2ccc(N3CCOCC3)cc2o1`: the IC50 in series [3] and in series [2] was > 20000 nM each time.

As for `COc1cc(C)c2cc(C(=O)NS(=O)(=O)c3ccc(C)cc3-c3ccccc3)oc2c1`, the IC50 in series [3] is > 20000 nM; in series [2] it was 10 nM. The pKa in series [4] was 4.7.

As to `CC(C)c1ccc2cc(C(=O)NS(=O)(=O)c3ccccc3-c3ccccc3)oc2c1`, in series [3], the IC50 came out at 3020 nM.

Regarding `CCOc1ccc2cc(C(=O)NS(=O)(=O)c3ccccc3-c3ccccc3)oc2c1`, the IC50 worked out at 9750 nM in series [3] and 554 nM in series [2].

In the case of `O=C(NS(=O)(=O)c1ccccc1-c1ccccc1)c1cc2ccc(C3CC3)cc2o1`, the IC50 in series [3] was found to be 1020 nM.

Turning to `CCCOc1ccc2cc(C(=O)NS(=O)(=O)c3ccccc3-c3ccccc3)oc2c1`, the IC50 was determined as 8680 nM in series [3] and 1540 nM in series [2].

As to `COc1ccc2cc(C(=O)NS(=O)(=O)c3ccccc3-c3ccccc3)oc2c1`, the IC50 was 368 nM in series [1], 7620 nM in series [3] and 260 nM in series [2].

`Cc1cc(C)c2cc(C(=O)NS(=O)(=O)c3ccccc3-c3ccccc3)oc2c1`: in series [3], the IC50 was determined as 2500 nM.

Regarding `Cc1cc(N(C)C)cc2oc(C(=O)NS(=O)(=O)c3ccccc3-c3ccccc3)cc12`, in series [3], the IC50 is > 20000 nM.

For `O=C(NS(=O)(=O)c1ccccc1-c1ccccc1)c1cc2c(F)cc(C3CC3)cc2o1`, the IC50 in series [3] came to 1000 nM; in series [2] it was 173 nM.

Take `Cc1cccc2oc(C(=O)NS(=O)(=O)c3ccccc3-c3ccccc3)cc12`: the half-maximal inhibitory concentration (IC50) was determined as 2570 nM in series [1] and 454 nM in series [2].

Turning to `Cc1ccc2cc(C(=O)NS(=O)(=O)c3ccccc3-c3ccccc3)oc2c1`, the IC50 in series [3] is > 11000 nM.

Take `CCOc1cccc(-c2cccc(Cl)c2)c1S(=O)(=O)NC(=O)c1cc2c(C)cc(OC)cc2o1`: the IC50 stood at 3680 nM in series [3] and 11 nM in series [2]. Also, the pKa in series [4] is 6.

For `O=C(NS(=O)(=O)c1ccccc1-c1ccccc1)c1cc2ccc(C(F)F)cc2o1`, in series [3], the IC50 is > 20000 nM.

The term Papp A→B denotes how fast a substance crosses the layer from the apical side. On to `CCOc1ccccc1S(=O)(=O)NC(=O)c1cc2c(OC)cc(OC)cc2o1`, for which, in series [5] (Caco-2, pH 7.2), the Papp A→B at 2 h, 2 µM is 2.8 ×10⁻⁶ cm/s.

Consider `COCCN(C)c1ccc2cc(C(=O)NS(=O)(=O)c3ccccc3-c3ccccc3)oc2c1`, for which the figures for the IC50 in series [3] and in series [2] were > 15500 nM and 1350 nM, respectively.

The solubility is the dissolved amount per volume that the medium holds. Usually logD stands for the decadic logarithm of the distribution of all forms, ionised or not, between an organic phase and buffer at a given pH. Low values mean a more hydrophilic compound, high ones a more lipophilic compound. With `CN(C)c1cc(F)c2cc(C(=O)NS(=O)(=O)c3ccccc3-c3ccccc3)oc2c1`, the solubility at 24 h in series [6] amounted to 264 µg/mL (≈ 602 µM). In addition, the half-inhibitory concentration (IC50) in series [3] came out at 60 nM. Besides, the logD in series [7] was 2.

For the compound `COc1cc(C)cc2oc(C(=O)NS(=O)(=O)c3ccccc3-c3ccccc3)cc12`, the IC50 in series [3] turned out to be 10000 nM.

Turning to `CCCOc1ccccc1S(=O)(=O)NC(=O)c1cc2c(C)cc(OC)cc2o1`, the IC50 in series [3] is 6540 nM; in series [2], 19 nM. In series [4], this compound displayed a pKa of 4.

Take `O=C(NS(=O)(=O)c1ccccc1-c1ccccc1)c1cc2ccccc2o1`: the IC50 in series [1] was 10500 nM; in series [3] it was > 20000 nM; in series [2], 2160 nM.

Regarding `COc1cc(C)c2cc(C(=O)NS(=O)(=O)c3ccc(Cl)cc3)oc2c1`, the IC50 in series [3] turned out to be 2280 nM; in series [2], 75 nM. The pKa in series [4] stood at 2.9.

Broadly, the Papp is a coefficient for how fast a substance crosses the barrier. Turning to `COc1cc(C)c2cc(C(=O)NS(=O)(=O)c3ccccc3-c3ccccc3)oc2c1`, the IC50 was 76 nM in series [1], > 4600 nM in series [3] and 24 nM in series [2]. In addition, the Ratio in series [8] is given as 1. The compound further yielded a pKa in series [4] of 4.3. The Papp in series [5] (caco-2, pH 7.2, 2 h, 2 µM) stood at 6.4 ×10⁻⁶ cm/s.

For `COCCc1ccc2cc(C(=O)NS(=O)(=O)c3ccccc3-c3ccccc3)oc2c1`, the IC50 in series [3] was > 15600 nM.

As to `CCOc1cccc(-c2ccccc2)c1S(=O)(=O)NC(=O)c1cc2c(C)cc(OC)cc2o1`, the half-maximal inhibitory concentration (IC50) in series [3] turned out to be 1400 nM; in series [2], 32 nM. Further, the pKa in series [4] is 5.6.

Regarding `Cc1cc(Br)cc2oc(C(=O)NS(=O)(=O)c3ccccc3-c3ccccc3)cc12`, the results for the IC50 in series [3] and in series [2] were > 20000 nM and 66 nM, respectively.

As for `CNc1ccc2cc(C(=O)NS(=O)(=O)c3ccccc3-c3ccccc3)oc2c1`, the IC50 in series [3] was 2580 nM.
